Key:
HT1080 cells [1] = experiment: Phagokinetic track assay of HT1080 cell motility; format: cell-based; conditions: for ability of HT1080 cells to clear the surrounding surface / inhibitory effect on clearing of the surface: 22 hours; for ability of HT1080 cells to clear the surrounding surface: brightfield microscopy; for cell motility by swept area ratio (total swept area divided by cell area): dose response, HT1080 cells; for inhibitory effect on clearing of the surface: concentrations expected to block the relevant Ca^2+ channels
Protocol: HT1080 cells were incubated on gold particle-coated glass coverslips for 22 hours. […] A suspension of 5000 cells/ml was treated with or without Ca^2+ channel blockers then seeded onto the gold-coated coverslips. […] The tracks produced by the cells were viewed by brightfield microscopy with a 10× objective. Thirty randomly selected tracks were measured for each slide.
As cells migrated on these surfaces, the gold particles were cleared from regions of the surface and frequently picked up by the cells, making the cells appear darker and the surrounding area appear lighter when viewed by microscopy.
The size of HT1080 cells varies considerably. To evaluate cell motility, a swept area ratio was used, which calculates total swept area divided by cell area.

HT1080 cells [2] = experiment: High speed microscopy of intracellular Ca^2+ waves in HT1080 cells; format: cell-based; conditions: high speed imaging
Protocol: Recent studies have shown that Ca^2+ spikes of polarized neutrophils and colorectal tumor cell transfectants are associated with certain intracellular Ca^2+ waves (Kindzelskii et al., J. Immunol. 170:64-72, 2003; Wang et al., J Immunol. 170:795-804, 2003). To visualize these waves, images must be collected using very short shutter speeds to avoid image blurring due to wave motion and indo-1 diffusion while the shutter is open. […]
High speed microscopy was performed using an Axiovert 135 fluorescene microscope with a quartz condenser, quartz objective, and an AttoArc mercury lamp (Zeiss). To detect fluorescence changes in the short wavelength emission region of indo-1, a 355HT15 exciter, a 390LP dichroic reflector, and a 405DF43 emission filter were used. […]
A region of high Ca concentration, seen in the microscope as a bright spot within the cell, was brought about by the local opening of Ca^2+ channels. As indo-1 has a relatively high affinity for Ca^2+ and a finite amount of time was required for the signaling apparatus to pump-down free cytosolic Ca^2+, a low intensity “tail” was observed next to the region of bright Ca^2+ indo-1 fluorescence (i.e., the Ca^2+ wave has a low intensity tail on the side opposite to the direction of wave motion).

HT1080 cells [3] = experiment: Biocoat Matrigel invasion chamber assay of HT1080 cell invasion; format: cell-based; conditions: 22 hour incubation; for number of migrating cells: control cells approximately 80; for lowest dose that exhibits maximal inhibition of invasiveness: HT1080 cells; for HT1080 cell transmigration: dose response; for effect on cell invasiveness: pharmacologically appropriate doses
HT1080 cells [4] = experiment: Microfluorometry of Ca^2+ spikes/oscillations in indo-1 labeled HT1080 cells; conditions: concentration not given
HT1080 cells [5] = experiment: T-type channel expression and cell shape of mibefradil treated HT1080 cells
Description: Thus, it was necessary to determine if blockade of T-type calcium channels on HT1080 cells caused morphological transformation.

`NC(=O)c1nnn(Cc2cc(Cl)c(C(=O)c3ccc(Cl)cc3)c(Cl)c2)c1N` [CAI, Carboxyamidotriazole] was tested, and the “ability of HT1080 cells to clear the surrounding surface” value (“ability of HT1080 cells” below) (HT1080 cells [1]; 10 μM) was “significantly decreased”.

For `[Gd+3]` [Gd^3+, gadolinium (Gd^3+)], the “propagating Ca^2+ wave after addition” value (HT1080 cells [2]) was “a Ca^2+ wave was observed in cells before, but not after addition”, the “ability of HT1080 cells” value (HT1080 cells [1]; 1.5 μM) was “significantly decreased” and the HT1080 movement (HT1080 cells [1]; Six μM) was “almost completely abolished”. For the same compound, the “cell motility by swept area ratio (total swept area divided by cell area)” value (HT1080 cells [1]) was “significantly inhibited cell motility in a dose-dependent manner”, the “number of migrating cells” value (HT1080 cells [3]) was “approximately 22” and the “lowest dose that exhibits maximal inhibition of invasiveness” value (HT1080 cells [3]) was 20 µM. For the same compound, the HT1080 cell transmigration (HT1080 cells [3]) was “inhibited HT1080 cell transmigration in a dose-dependent fashion” and the “effect on Ca^2+ spikes” value (HT1080 cells [4]) was “Ca^2+ spikes diminished then disappeared”.

`COc1ccc(CCCOC(Cn2ccnc2)c2ccc(OC)cc2)cc1` (stereo not shown) [SKF96365] was tested, and the “inhibitory effect on clearing of the surface” value (HT1080 cells [1]) was “no inhibitory effect was observed” and the “effect on cell invasiveness” value (HT1080 cells [3]) was “no effect”.

`COc1ccc([C@@H]2Sc3ccccc3N(CCN(C)C)C(=O)[C@@H]2OC(C)=O)cc1` [diltiazem] was tested, and the “inhibitory effect on clearing of the surface” value (HT1080 cells [1]) was “no inhibitory effect was observed” and the “effect on cell invasiveness” value (HT1080 cells [3]) was “no effect”.

For `COCC(=O)O[C@]1(CCN(C)CCCc2nc3ccccc3[nH]2)CCc2cc(F)ccc2[C@@H]1C(C)C` [mibefradil], the “propagating Ca^2+ wave after addition” value (HT1080 cells [2]) was “no propagating Ca^2+ wave was found”, the “ability of HT1080 cells” value (HT1080 cells [1]; 1.5 μM) was “significantly decreased” and the “decrease of cell-swept area compared with control treated cells” value (HT1080 cells [1]; 5 μM) was “approximately 90%”. For the same compound, the “cell motility by swept area ratio (total swept area divided by cell area)” value (HT1080 cells [1]) was “significantly inhibited cell motility in a dose-dependent manner”, the “number of migrating cells” value (HT1080 cells [3]) was “approximately 25” and the “lowest dose that exhibits maximal inhibition of invasiveness” value (HT1080 cells [3]) was 5 µM. For the same compound, the HT1080 cell transmigration (HT1080 cells [3]) was “inhibited HT1080 cell transmigration in a dose-dependent fashion” and the “cell shape / morphological transformation” value (HT1080 cells [5]) was “maintain their rounded shape”.

For `COC(=O)C1=C(C)NC(C)=C(C(=O)OCCN(C)Cc2ccccc2)C1c1cccc([N+](=O)[O-])c1` (stereo not shown) [nicardipine], the “effect on cell invasiveness” value (HT1080 cells [3]) was “no effect”.

Reference: US20060003020A1, “Anti-metastatic ability of mibefradil and gadolinium” (THE REGENTS OF THE UNIVERSITY OF MICHIGAN, priority 2004, published 2006)
